# According to ChEMBL document CHEMBL3877294, “Discovery of Ruzasvir (MK-8408): A Potent, Pan-Genotype HCV NS5A Inhibitor with Optimized Activity against Common Resistance-Associated Polymorphisms” (J Med Chem, 2017):
# What was measured:
# [1] = tested on: T1, Nonstructural protein 5A (Hepatitis C virus), Q5L478 [Y93H]; experiment: Inhibition of HCV genotype-1a NS5A Y93H mutant infected in human HuH7 cells by luciferase reporter gene assay; type: cell-based; details: Hepatitis C virus subtype 1a; Huh-7
# T1 sequence (whole entry): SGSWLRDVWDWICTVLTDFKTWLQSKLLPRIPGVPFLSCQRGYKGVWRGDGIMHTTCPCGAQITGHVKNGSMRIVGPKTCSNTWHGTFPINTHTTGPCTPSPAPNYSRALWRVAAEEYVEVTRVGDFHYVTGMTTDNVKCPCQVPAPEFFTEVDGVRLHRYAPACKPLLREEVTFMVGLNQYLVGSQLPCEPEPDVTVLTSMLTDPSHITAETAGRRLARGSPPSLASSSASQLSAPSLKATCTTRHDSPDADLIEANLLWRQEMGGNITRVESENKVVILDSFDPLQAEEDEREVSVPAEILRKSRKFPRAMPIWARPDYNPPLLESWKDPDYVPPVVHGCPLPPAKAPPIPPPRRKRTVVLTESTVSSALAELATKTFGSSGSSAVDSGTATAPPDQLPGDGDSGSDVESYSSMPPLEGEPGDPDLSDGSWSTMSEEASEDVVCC
# Huh-7 [2] = experiment: Inhibition of HCV genotype-1a NS5A infected in human HuH7 cells by luciferase reporter gene assay; type: cell-based; details: Hepatitis C virus subtype 1a
# [3] = tested on: Hepatitis C virus subtype 1a; experiment: Selectivity ratio for EC90 for HCV genotype-1a NS5A Y93H mutant to EC90 for HCV genotype-1a NS5A
# [4] = Selectivity ratio for EC90 for HCV genotype-2b NS5A harboring methionine at position 31 to EC90 for HCV genotype-1a NS5A
# Huh-7 [5] = experiment: Inhibition of HCV genotype-2b NS5A harboring methionine at position 31 infected in human HuH7 cells by luciferase reporter gene assay; type: cell-based; details: Hepatitis C virus subtype 2b
# Huh-7 [6] = experiment: Inhibition of HCV genotype-3a NS5A infected in human HuH7 cells by luciferase reporter gene assay; type: cell-based; details: Hepatitis C virus subtype 3a
# Huh-7 [7] = experiment: Inhibition of HCV genotype-4a NS5A infected in human HuH7 cells by luciferase reporter gene assay; type: cell-based; details: Hepatitis C virus subtype 4a
# [8] = tested on: Nonstructural protein 5A (Hepatitis C virus), Q5L478 [UNDEFINED MUTATION]; experiment: Inhibition of HCV genotype-1a NS5A L31V mutant infected in human HuH7 cells by luciferase reporter gene assay; type: cell-based; details: Hepatitis C virus subtype 1a; Huh-7
Structure (SMILES),EC90 [1],EC90 (Huh-7 [2]),Selectivity ratio [3],Selectivity ratio [4],EC90 (Huh-7 [5]),EC90 (Huh-7 [6]),EC90 (Huh-7 [7]),EC90 [8]
COC(=O)N[C@H](C(=O)N1CCC[C@H]1c1ncc(-c2ccc3c(c2)O[C@@H](c2ccc(C4CC4)cc2)n2c-3cc3cc(-c4cnc([C@@H]5CCCN5C(=O)[C@@H](NC(=O)OC)C(C)C)[nH]4)ccc32)[nH]1)C(C)C,8 nM,4 pM,1900,300,1 nM,–,–,–
COC(=O)N[C@H](C(=O)N1CCC[C@H]1c1ncc(-c2ccc3c(c2)OC(c2ccc(Cl)s2)n2c-3cc3cc(-c4cnc([C@@H]5CCCN5C(=O)[C@@H](NC(=O)OC)C(C)C)[nH]4)ccc32)[nH]1)C(C)C (mixture of isomers),4 nM,20 pM,200,50,1 nM,–,–,–
COC(=O)N[C@H](C(=O)N1CCC[C@H]1c1ncc(-c2cc(F)c3c(c2)OC(c2csc(C4CC4)c2)n2c-3cc3cc(-c4cnc([C@@H]5CCCN5C(=O)[C@@H](NC(=O)OC)C(C)C)[nH]4)ccc32)[nH]1)C(C)C (some centres not stated),0.26 nM,2 pM,–,–,0.88 nM,7 pM,3 pM,0.06 nM
COC(=O)N[C@H](C(=O)N1CCC[C@H]1c1ncc(-c2cc(F)c3c(c2)OC(c2cnns2)n2c-3cc3cc(-c4cnc([C@@H]5CCCN5C(=O)[C@@H](NC(=O)OC)C(C)C)[nH]4)ccc32)[nH]1)C(C)C (some centres not stated),0.36 nM,3 pM,–,–,0.72 nM,47 pM,12 pM,0.14 nM
COC(=O)N[C@H](C(=O)N1CCC[C@H]1c1ncc(-c2cc(F)c3c(c2)OC(c2sccc2C2CC2)n2c-3cc3cc(-c4cnc([C@@H]5CCCN5C(=O)[C@@H](NC(=O)OC)C(C)C)[nH]4)ccc32)[nH]1)C(C)C (some centres not stated),70 nM,12 pM,–,–,> 33 nM,4700 pM,320 pM,1.74 nM
COC(=O)N[C@H](C(=O)N1CCC[C@H]1c1ncc(-c2cc(F)c3c(c2)OC(c2ccsc2)n2c-3cc3cc(-c4cnc([C@@H]5CCCN5C(=O)[C@@H](NC(=O)OC)C(C)C)[nH]4)ccc32)[nH]1)C(C)C (some centres not stated),0.59 nM,2 pM,–,–,3.7 nM,13 pM,10 pM,0.13 nM
CCCc1ccc(C2Oc3cc(-c4cnc([C@@H]5CCCN5C(=O)[C@@H](NC(=O)OC)C(C)C)[nH]4)cc(F)c3-c3cc4cc(-c5cnc([C@@H]6CCCN6C(=O)[C@@H](NC(=O)OC)C(C)C)[nH]5)ccc4n32)s1 (some centres not stated),0.069 nM,5 pM,–,–,0.44 nM,9 pM,5 pM,0.013 nM
COC(=O)N[C@H](C(=O)N1CCC[C@H]1c1ncc(-c2cc(F)c3c(c2)OC(c2cc4c(s2)CCC4)n2c-3cc3cc(-c4cnc([C@@H]5CCCN5C(=O)[C@@H](NC(=O)OC)C(C)C)[nH]4)ccc32)[nH]1)C(C)C (some centres not stated),0.26 nM,3 pM,–,–,0.24 nM,7 pM,5 pM,0.003 nM
COC(=O)N[C@H](C(=O)N1CCC[C@H]1c1ncc(-c2cc(F)c3c(c2)OC(c2nc4ccccc4o2)n2c-3cc3cc(-c4cnc([C@@H]5CCCN5C(=O)[C@@H](NC(=O)OC)C(C)C)[nH]4)ccc32)[nH]1)C(C)C (some centres not stated),0.32 nM,4 pM,–,–,1 nM,25 pM,8 pM,0.042 nM
COC(=O)N[C@H](C(=O)N1CCC[C@H]1c1ncc(-c2cc(F)c3c(c2)OC(c2cnc(C4(C)CC4)s2)n2c-3cc3cc(-c4cnc([C@@H]5CCCN5C(=O)[C@@H](NC(=O)OC)C(C)C)[nH]4)ccc32)[nH]1)C(C)C (some centres not stated),0.38 nM,17 pM,–,–,0.68 nM,46 pM,27 pM,0.065 nM
COC(=O)N[C@H](C(=O)N1CCC[C@H]1c1ncc(-c2cc(F)c3c(c2)OC(c2cnc(C4(C)CC4)s2)n2c-3cc3cc(-c4cnc([C@@H]5C[C@H]6C[C@H]6N5C(=O)[C@@H](NC(=O)OC)C(C)C)[nH]4)ccc32)[nH]1)C(C)C (some centres not stated),0.02 nM,5 pM,–,–,0.18 nM,9 pM,5 pM,0.007 nM
COC(=O)N[C@H](C(=O)N1CCC[C@H]1c1ncc(-c2cc(F)c3c(c2)OC(c2ccc(C(C)C)s2)n2c-3cc3cc(-c4cnc([C@@H]5CCCN5C(=O)[C@@H](NC(=O)OC)C(C)C)[nH]4)ccc32)[nH]1)C(C)C (some centres not stated),0.13 nM,2 pM,–,–,0.52 nM,1 pM,3 pM,0.01 nM
COC(=O)N[C@H](C(=O)N1CCC[C@H]1c1ncc(-c2cc(F)c3c(c2)OC(c2cnc(C(C)C)s2)n2c-3cc3cc(-c4cnc([C@@H]5C[C@H]6C[C@H]6N5C(=O)[C@@H](NC(=O)OC)C(C)C)[nH]4)ccc32)[nH]1)C(C)C (some centres not stated),0.028 nM,3 pM,–,–,0.23 nM,6 pM,6 pM,0.008 nM
COC(=O)N[C@H](C(=O)N1CCC[C@H]1c1ncc(-c2cc(F)c3c(c2)OC(c2ccc(C4CC4(F)F)s2)n2c-3cc3cc(-c4cnc([C@@H]5CCCN5C(=O)[C@@H](NC(=O)OC)C(C)C)[nH]4)ccc32)[nH]1)C(C)C (some centres not stated),0.084 nM,2 pM,–,–,0.43 nM,7 pM,3 pM,0.02 nM
COC(=O)N[C@H](C(=O)N1CCC[C@H]1c1ncc(-c2cc(F)c3c(c2)OC(c2cnc(OC)s2)n2c-3cc3cc(-c4cnc([C@@H]5CCCN5C(=O)[C@@H](NC(=O)OC)C(C)C)[nH]4)ccc32)[nH]1)C(C)C (some centres not stated),0.035 nM,2 pM,–,–,0.068 nM,7 pM,4 pM,0.015 nM
COC(=O)N[C@H](C(=O)N1CCC[C@H]1c1ncc(-c2cc(F)c3c(c2)OC(c2cc4c(s2)CCCC4)n2c-3cc3cc(-c4cnc([C@@H]5CCCN5C(=O)[C@@H](NC(=O)OC)C(C)C)[nH]4)ccc32)[nH]1)C(C)C (some centres not stated),0.31 nM,5 pM,–,–,0.61 nM,20 pM,8 pM,0.027 nM
CCc1ncc(C2Oc3cc(-c4cnc([C@@H]5CCCN5C(=O)[C@@H](NC(=O)OC)C(C)C)[nH]4)cc(F)c3-c3cc4cc(-c5cnc([C@@H]6CCCN6C(=O)[C@@H](NC(=O)OC)C(C)C)[nH]5)ccc4n32)s1 (some centres not stated),0.14 nM,4 pM,–,–,0.097 nM,9 pM,11 pM,0.048 nM
COCc1ncc(C2Oc3cc(-c4cnc([C@@H]5CCCN5C(=O)[C@@H](NC(=O)OC)C(C)C)[nH]4)cc(F)c3-c3cc4cc(-c5cnc([C@@H]6CCCN6C(=O)[C@@H](NC(=O)OC)C(C)C)[nH]5)ccc4n32)s1 (some centres not stated),0.04 nM,2 pM,–,–,0.12 nM,7 pM,3 pM,0.017 nM
COC(=O)N[C@H](C(=O)N1CCC[C@H]1c1ncc(-c2cc(F)c3c(c2)OC(c2ccc(C4CC4)s2)n2c-3cc3cc(-c4cnc([C@@H]5C[C@H]6C[C@H]6N5C(=O)[C@@H](NC(=O)OC)C(C)C)[nH]4)ccc32)[nH]1)C(C)C (some centres not stated),0.03 nM,4 pM,–,–,0.3 nM,7 pM,5 pM,0.012 nM
